Laboratory results reported in patent US10441663B2, “Methods for treating cancer” (Bicycle Therapeutics Limited, priority 2016, dated 2019).
*1 amine or outer side, *2 acyl side, *3 side chain or, on linkers, in order; H or OH if unused. Where a SMILES comes first, the peptide text is derived from it. Bridges are numbered along the chain shown (N, C = ends). [ ]: non-standard residue; d: D form. 1Nal = N[C@@H](Cc1cccc2ccccc12)C(=O)O; TBMB = c1c(C[*:1])cc(C[*:3])cc1C[*:2]; Tle = CC(C)(C)[C@H](N)C(=O)O; βAla = NCCC(=O)O; Sar = CNCC(=O)O

Columns and labels:
LU-01-0486 PDX model = type: in vivo, Mus Musculus; conditions: Docetaxel group
Protocol: The objective of this study was to evaluate the in vivo anti-tumor efficacy of BT1718 in the treatment of MT1-MMP low-expressing LU-01-0486 PDX model in female Balb/C nude mice
Each mouse was inoculated subcutaneously at the right flank with LU-01-0486 of tumor fragment (30 mm^3) for tumor development. The treatments was started when the average tumor volume reaches 164 mm^3.
All the procedures related to animal handling, care and the treatment in the study were performed following the guidance of the Association for Assessment and Accreditation of Laboratory Animal Care (AAALAC). At the time of routine monitoring, the animals were daily checked for any effects of tumor growth and treatments on normal behavior such as mobility, food and water consumption (by looking only), body weight gain/loss (body weights were measured twice weekly), eye/hair matting and any other abnormal effect as stated in the protocol. Death and observed clinical signs were recorded on the basis of the numbers of animals within each subset.
The major endpoint was to see if the tumor growth could be delayed or mice could be cured. Tumor size was measured two times weekly in two dimensions using a caliper, and the volume was expressed in mm^3 using the formula: V=0.5 a×b^2 where a and b are the long and short diameters of the tumor, respectively. The tumor size was then used for calculations of T/C value. […]
TGI was calculated for each group using the formula: TGI (%)=[1−(Ti−T0)/(Vi−V0)]×100; Ti is the average tumor volume of a treatment group on a given day, T0 is the average tumor volume of the treatment group on the day of treatment start, Vi is the average tumor volume of the vehicle control group on the same day with Ti, and V0 is the average tumor volume of the vehicle group on the day of treatment start. […]
A one-way ANOVA was performed to compare tumor volume among groups, and when a significant F-statistics (a ratio of treatment variance to the error variance) was obtained, comparisons between groups were carried out with Games-Howell test. All data were analyzed using Prism. […]

catalytic domain (MT1) = experiment: Bicycle peptide binding to catalytic domain
Protocol: (§1) A bicyclic constrained peptide binder (Bicycle) was identified that binds to the hemopexin domain of MT1 with an apparent Kd of approximately 2 nM. […] Bicycle drug conjugates (BDCs) with a variety of linkers and cytotoxic payloads were prepared which retained binding to MT1.

MMP15 = MMP15 (Homo sapiens, UniProt P51511); experiment: Binding to related MMP family member
MMP15, sequence (P51511 132-669, species assumed): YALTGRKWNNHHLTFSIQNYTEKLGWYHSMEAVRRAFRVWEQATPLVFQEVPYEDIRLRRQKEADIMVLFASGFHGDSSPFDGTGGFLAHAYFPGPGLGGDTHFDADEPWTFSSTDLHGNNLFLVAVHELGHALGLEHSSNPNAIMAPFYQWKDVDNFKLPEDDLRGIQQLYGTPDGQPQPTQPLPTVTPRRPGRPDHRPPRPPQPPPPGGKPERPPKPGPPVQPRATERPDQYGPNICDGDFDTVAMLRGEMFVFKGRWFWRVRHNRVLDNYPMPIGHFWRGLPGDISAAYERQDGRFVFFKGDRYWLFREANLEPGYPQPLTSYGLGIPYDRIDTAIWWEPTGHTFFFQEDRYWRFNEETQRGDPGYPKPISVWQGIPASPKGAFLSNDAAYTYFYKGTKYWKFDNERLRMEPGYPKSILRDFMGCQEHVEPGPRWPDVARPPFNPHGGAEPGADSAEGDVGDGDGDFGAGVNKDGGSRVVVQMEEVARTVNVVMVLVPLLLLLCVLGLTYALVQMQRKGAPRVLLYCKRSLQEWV

MMP16 = MMP16 (Homo sapiens, UniProt P51512); experiment: Binding to related MMP family member
MMP16, sequence (P51512 120-607, species assumed): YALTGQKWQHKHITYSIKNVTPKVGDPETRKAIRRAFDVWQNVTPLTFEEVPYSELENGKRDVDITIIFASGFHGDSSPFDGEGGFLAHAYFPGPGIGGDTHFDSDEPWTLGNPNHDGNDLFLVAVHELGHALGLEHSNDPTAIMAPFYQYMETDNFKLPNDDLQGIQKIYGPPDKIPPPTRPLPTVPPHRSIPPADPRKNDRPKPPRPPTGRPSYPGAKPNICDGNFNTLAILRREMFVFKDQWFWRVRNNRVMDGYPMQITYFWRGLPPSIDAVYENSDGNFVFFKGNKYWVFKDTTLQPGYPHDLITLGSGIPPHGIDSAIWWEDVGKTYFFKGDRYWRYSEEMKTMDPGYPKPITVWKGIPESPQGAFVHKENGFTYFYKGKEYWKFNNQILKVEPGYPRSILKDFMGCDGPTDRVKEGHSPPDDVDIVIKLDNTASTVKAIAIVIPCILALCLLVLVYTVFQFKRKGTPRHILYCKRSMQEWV

MMP1 [1] = molecular target: T1, MMP1 (Homo sapiens, UniProt P03956); experiment: Binding to related MMP family member
T1 sequence (P03956 100-469, species assumed): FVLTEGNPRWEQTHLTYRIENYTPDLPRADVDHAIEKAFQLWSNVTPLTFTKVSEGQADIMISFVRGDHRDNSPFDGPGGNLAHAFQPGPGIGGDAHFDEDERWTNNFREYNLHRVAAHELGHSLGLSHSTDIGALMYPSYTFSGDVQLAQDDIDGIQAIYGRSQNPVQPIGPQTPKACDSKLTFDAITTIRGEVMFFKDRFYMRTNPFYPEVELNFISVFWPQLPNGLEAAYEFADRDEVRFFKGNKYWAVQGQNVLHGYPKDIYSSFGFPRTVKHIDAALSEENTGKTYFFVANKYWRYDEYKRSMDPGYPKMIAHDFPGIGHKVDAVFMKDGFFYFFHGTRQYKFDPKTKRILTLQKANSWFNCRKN
Protocol: as §1

MMP2 [2] = molecular target: T2, MMP2 (Homo sapiens, UniProt P08253); experiment: Binding to related MMP family member
T2 sequence (P08253 110-660, species assumed): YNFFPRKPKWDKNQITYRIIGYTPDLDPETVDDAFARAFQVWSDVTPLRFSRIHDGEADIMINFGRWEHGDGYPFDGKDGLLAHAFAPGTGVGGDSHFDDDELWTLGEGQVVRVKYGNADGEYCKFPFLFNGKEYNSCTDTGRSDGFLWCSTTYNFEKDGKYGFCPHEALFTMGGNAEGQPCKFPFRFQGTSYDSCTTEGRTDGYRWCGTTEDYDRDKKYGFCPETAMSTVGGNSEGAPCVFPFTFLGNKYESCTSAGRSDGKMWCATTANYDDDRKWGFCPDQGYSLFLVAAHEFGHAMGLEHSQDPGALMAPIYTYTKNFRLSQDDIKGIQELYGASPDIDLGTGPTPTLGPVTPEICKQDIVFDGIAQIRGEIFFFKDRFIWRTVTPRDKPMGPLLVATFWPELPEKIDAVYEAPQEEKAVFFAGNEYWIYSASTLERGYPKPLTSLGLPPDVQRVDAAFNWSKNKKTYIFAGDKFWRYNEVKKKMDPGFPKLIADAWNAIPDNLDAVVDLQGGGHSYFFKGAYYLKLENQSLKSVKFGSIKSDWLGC
Protocol: as §1

MMP24 = MMP24 (Homo sapiens, UniProt Q9Y5R2); experiment: Binding to related MMP family member
MMP24, sequence (Q9Y5R2 156-645, species assumed): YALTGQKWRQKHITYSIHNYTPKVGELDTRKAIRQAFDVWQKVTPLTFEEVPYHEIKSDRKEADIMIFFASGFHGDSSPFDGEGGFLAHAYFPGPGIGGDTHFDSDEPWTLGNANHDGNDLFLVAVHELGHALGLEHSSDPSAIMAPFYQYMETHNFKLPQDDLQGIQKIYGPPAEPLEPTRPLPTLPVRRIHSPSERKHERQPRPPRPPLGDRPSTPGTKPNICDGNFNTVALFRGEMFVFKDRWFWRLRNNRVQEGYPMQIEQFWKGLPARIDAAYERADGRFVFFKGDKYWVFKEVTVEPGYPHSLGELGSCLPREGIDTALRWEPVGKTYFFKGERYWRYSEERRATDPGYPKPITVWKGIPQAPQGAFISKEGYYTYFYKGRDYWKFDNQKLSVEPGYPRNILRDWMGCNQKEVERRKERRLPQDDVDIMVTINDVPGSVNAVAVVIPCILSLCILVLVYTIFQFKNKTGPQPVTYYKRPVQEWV
Protocol: as §1

Pro-MMP1 = molecular target: T3, Pro-MMP1 (Homo sapiens, UniProt P03956); experiment: Binding to related MMP family member
T3 construct: MMP1, Pro-MMP1, MMP2
T3 sequence (P03956 20-469 limits assumed): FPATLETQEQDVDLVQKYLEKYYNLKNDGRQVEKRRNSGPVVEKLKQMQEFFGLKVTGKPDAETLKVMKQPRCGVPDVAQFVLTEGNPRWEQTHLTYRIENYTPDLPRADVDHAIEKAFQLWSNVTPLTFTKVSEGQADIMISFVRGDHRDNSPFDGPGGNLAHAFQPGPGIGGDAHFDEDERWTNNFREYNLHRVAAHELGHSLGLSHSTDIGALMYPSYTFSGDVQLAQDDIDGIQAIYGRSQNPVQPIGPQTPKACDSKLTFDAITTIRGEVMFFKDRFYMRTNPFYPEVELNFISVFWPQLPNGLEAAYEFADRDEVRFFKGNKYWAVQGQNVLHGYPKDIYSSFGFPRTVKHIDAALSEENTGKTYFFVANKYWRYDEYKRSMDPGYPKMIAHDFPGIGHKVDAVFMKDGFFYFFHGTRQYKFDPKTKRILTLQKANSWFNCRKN

MT1 = MT1 (Homo sapiens, UniProt P50281); experiment: Effect on catalytic activity of the protease in vitro; type: biochemical
Protocol: as §1

MMP1 [3] = molecular target: T1, MMP1; experiment: Effect on related MMP catalytic activity; type: biochemical; conditions: in vitro
Protocol: as §1

MMP2 [4] = molecular target: T2, MMP2; experiment: Effect on related MMP catalytic activity; type: biochemical; conditions: in vitro
Protocol: as §1

MMP9 = MMP9 (Homo sapiens, UniProt P14780); experiment: Effect on related MMP catalytic activity; type: biochemical; conditions: in vitro
MMP9, sequence (P14780 94-707, species assumed): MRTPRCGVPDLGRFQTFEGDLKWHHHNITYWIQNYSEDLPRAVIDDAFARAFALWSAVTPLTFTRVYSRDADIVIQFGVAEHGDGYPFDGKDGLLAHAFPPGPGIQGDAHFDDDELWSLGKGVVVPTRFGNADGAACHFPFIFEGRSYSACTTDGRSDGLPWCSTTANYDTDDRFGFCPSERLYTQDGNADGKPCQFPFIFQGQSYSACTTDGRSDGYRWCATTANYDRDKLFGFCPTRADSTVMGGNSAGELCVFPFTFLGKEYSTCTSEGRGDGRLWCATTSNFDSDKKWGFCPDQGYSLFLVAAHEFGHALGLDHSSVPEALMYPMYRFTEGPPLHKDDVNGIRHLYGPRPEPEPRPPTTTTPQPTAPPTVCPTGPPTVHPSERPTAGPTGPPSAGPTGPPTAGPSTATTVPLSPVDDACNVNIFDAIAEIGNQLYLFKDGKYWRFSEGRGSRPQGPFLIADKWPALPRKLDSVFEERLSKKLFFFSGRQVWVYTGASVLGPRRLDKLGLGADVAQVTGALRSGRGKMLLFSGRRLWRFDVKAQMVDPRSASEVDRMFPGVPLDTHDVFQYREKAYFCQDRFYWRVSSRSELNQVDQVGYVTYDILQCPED
Protocol: as §1

[5] = system: cell migration or invasion; experiment: Effect on cell migration or invasion; type: cell-based; conditions: in vitro
Protocol: as §1

Row | SMILES | tumor growth (LU-01-0486 PDX model) | binding (catalytic domain (MT1)) | binding (MMP15) | binding (MMP16) | binding (MMP1 [1]) | binding (MMP2 [2]) | binding (MMP24) | binding (Pro-MMP1) | impact on catalytic activity (MT1) | impact on catalytic activity (MMP1 [3]) | impact on catalytic activity (MMP2 [4]) | impact on catalytic activity (MMP9) | impact on cell migration or invasion [5]
1 | CC(=O)O[C@@]12CO[C@@H]1C[C@H](O)[C@@]1(C)C(=O)[C@H](O)C3=C(C)[C@@H](OC(=O)[C@H](O)[C@@H](NC(=O)OC(C)(C)C)c4ccccc4)C[C@@](O)([C@@H](OC(=O)c4ccccc4)[C@H]21)C3(C)C [Docetaxel, reference compound] | significant inhibition of tumor growth | – | – | – | – | – | – | – | – | – | – | – | –
2 | C[C@H](NC(=O)CN(C)C(=O)CN(C)C(=O)CN(C)C(=O)CN(C)C(=O)CN(C)C(=O)CN(C)C(=O)CN(C)C(=O)CN(C)C(=O)CN(C)C(=O)CN(C)C(=O)CCN)C(=O)N[C@H]1CSCc2cc3cc(c2)CSC[C@H](NC(=O)[C@@H](C)NC(=O)[C@H](Cc2cccc4ccccc24)NC(=O)[C@H](CCC(=O)O)NC(=O)[C@H](CC(N)=O)NC(=O)[C@@H](C)NC1=O)C(=O)N[C@@H](CCC(=O)O)C(=O)N[C@@H](CC(=O)O)C(=O)N[C@@H](Cc1ccccc1)C(=O)N[C@@H](Cc1ccc(O)cc1)C(=O)N[C@@H](CC(=O)O)C(=O)N[C@@H](C(C)(C)C)C(=O)N[C@H](C(N)=O)CSC3 [N241] (H-[βAla][Sar][Sar][Sar][Sar][Sar][Sar][Sar][Sar][Sar][Sar]AC[dA]NE[1Nal][dA]CEDFYD[Tle]C-NH2; linker 13-19-26 via TBMB; N-terminus and C-terminus assumed) | – | no binding | no binding | no binding | no binding | no binding | no binding | no binding | no direct impact | no direct impact | no direct impact | no direct impact | no direct impact
